How the values were obtained:
[1] = target: T1, EP1 receptors (Homo sapiens, UniProt P34995); experiment: Binding assay for the human prostanoid EP1 receptor (competition with [3H]-PGE2); design: expressed in transfected cells; host or cells: CHO-K1 (membrane fraction); settings: averages of a number of experiments; Example 3 as sodium salt; read-out: pIC50 value in the binding assay for the human prostanoid EP1 receptor (converted)
T1 sequence (P34995 1-402): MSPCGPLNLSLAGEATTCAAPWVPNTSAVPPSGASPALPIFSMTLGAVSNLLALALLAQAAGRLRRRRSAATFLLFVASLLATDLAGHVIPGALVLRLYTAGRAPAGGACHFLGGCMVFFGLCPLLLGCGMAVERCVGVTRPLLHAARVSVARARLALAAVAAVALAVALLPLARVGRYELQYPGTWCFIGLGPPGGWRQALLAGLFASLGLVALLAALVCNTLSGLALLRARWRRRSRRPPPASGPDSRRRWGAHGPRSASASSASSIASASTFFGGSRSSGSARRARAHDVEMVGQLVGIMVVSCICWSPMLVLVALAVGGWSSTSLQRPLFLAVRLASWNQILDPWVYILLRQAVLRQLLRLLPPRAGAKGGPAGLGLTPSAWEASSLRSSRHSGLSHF
Protocol: Binding Assay for the Human Prostanoid EP1 Receptor
Competition assay using [^3H]-PGE2.
Compound potencies are determined using a radioligand binding assay. In this assay compound potencies are determined from their ability to compete with tritiated prostaglandin E2 ([^3H]-PGE2) for binding to the human EP1 receptor.
This assay utilises Chinese hamster ovary-K1 (CHO-K1) cells into which a stable vector containing the EP1 cDNA has previously been transfected. Cells are cultured in suitable flasks containing culture medium such as DMEM:F-12 supplemented with 10% v/v foetal calf serum, 2 mM L-glutamine, 0.25 mg/ml geneticin, 10 μg/ml puromycin and 10 μM indomethacin.
Cells are detached from the culture flasks by incubation in calcium and magnesium free phosphate buffered saline containing 1 mM disodium ethylenediaminetetraacetic acid (Na2EDTA) and 10 μM indomethacin for 5 min. The cells are isolated by centrifugation at 250×g for 5 mins and suspended in an ice cold buffer such as 50 mM Tris, 1 mM Na2EDTA, 140 mM NaCl, 10 μM indomethacin (pH 7.4). The cells are homogenised using a Polytron tissue disrupter (2×10s burst at full setting), centrifuged at 48,000×g for 20 mins and the pellet containing the membrane fraction is washed (optional) three times by suspension and centrifugation at 48,000×g for 20 mins. The final membrane pellet is suspended in an assay buffer such as 10 mM 2-[N-morpholino]ethanesulphonic acid, 1 mM Na2EDTA, 10 mM MgCl2 (pH 6). Aliquots are frozen at −80° C. until required.
For the binding assay the cell membranes, competing compounds and [^3H]-PGE2 (3 nM final assay concentration) are incubated in a final volume of 100 μl for 30 min at 30° C. All reagents are prepared in assay buffer. Reactions are terminated by rapid vacuum filtration over GF/B filters using a Brandell cell harvester. The filters are washed with ice cold assay buffer, dried and the radioactivity retained on the filters is measured by liquid scintillation counting in Packard TopCount scintillation counter.
The data are analysed using non linear curve fitting techniques to determine the concentration of compound producing 50% inhibition of specific binding (IC50).

[2] = target: T1, EP1 receptors; experiment: human EP1 calcium mobilisation assay (CHO-K1 cells, PGE2, FLIPR); format: cell-based; design: expressed in transfected cells; host or cells: CHO-K1; settings: free bases or sodium salts; averages of a number of experiments; read-out: functional pKi value, human EP1 calcium mobilisation assay (converted)
Protocol: (§1) Briefly, the antagonist properties of compounds are assessed by their ability to inhibit the mobilisation of intracellular calcium ([Ca^2+]i) in response to activation of EP1 or EP3 receptors by the natural agonist hormone prostaglandin E2 (PGE2). Increasing concentrations of antagonist reduce the amount of calcium that a given concentration of PGE2 can mobilise. The net effect is to displace the PGE2 concentration-effect curve to higher concentrations of PGE2. The amount of calcium produced is assessed using a calcium-sensitive fluorescent dye such as Fluo-4, AM and a suitable instrument such as a Fluorimetric Imaging Plate Reader (FLIPR). Increasing amounts of [Ca^2+]i produced by receptor activation increase the amount of fluorescence produced by the dye and give rise to an increasing signal. The signal may be detected using the FLIPR instrument and the data generated may be analysed with suitable curve-fitting software.
(§2) The human EP1 or EP3 calcium mobilisation assay (hereafter referred to as ‘the calcium assay’) utilises Chinese hamster ovary-K1 (CHO-K1) cells into which a stable (pCIN; BioTechniques 20 (1996): 102-110) vector containing either EP1 or EP3 cDNA has previously been transfected. Cells are cultured in suitable flasks containing culture medium such as DMEM:F-12 supplemented with 10% v/v foetal calf serum, 2 mM L-glutamine, 0.25 mg/ml geneticin, 100 μM flurbiprofen and 10 µg/ml puromycin.
(§3) For assay, cells are harvested using a proprietary reagent that dislodges cells such as Versene. Cells are re-suspended in a suitable quantity of fresh culture media for introduction into a 384-well plate. Following incubation for 24 hours at 37° C. the culture media is replaced with a medium containing Fluo-4 and the detergent pluronic acid, and a further incubation takes place. Concentrations of compounds are then added to the plate in order to construct concentration-effect curves. This may be performed on the FLIPR in order to assess the agonist properties of the compounds. Concentrations of PGE2 are then added to the plate in order to assess the antagonist properties of the compounds.
(§4) The data so generated may be analysed by means of a computerised curve-fitting routine. The concentration of compound that elicits a half-maximal inhibition of the calcium mobilisation induced by PGE2 (pIC50) may then be estimated.

[3] = target: T2, TP receptor (Homo sapiens, UniProt P21731); experiment: human TP calcium mobilisation assay (CHO-K1 cells, U46619, FLIPR); format: cell-based; settings: free bases or sodium salts; read-out: functional pKi, human TP calcium mobilisation assay (converted)
T2 construct: expressed in transfected cells; host or cells: CHO-K1
T2 sequence (P21731 1-343): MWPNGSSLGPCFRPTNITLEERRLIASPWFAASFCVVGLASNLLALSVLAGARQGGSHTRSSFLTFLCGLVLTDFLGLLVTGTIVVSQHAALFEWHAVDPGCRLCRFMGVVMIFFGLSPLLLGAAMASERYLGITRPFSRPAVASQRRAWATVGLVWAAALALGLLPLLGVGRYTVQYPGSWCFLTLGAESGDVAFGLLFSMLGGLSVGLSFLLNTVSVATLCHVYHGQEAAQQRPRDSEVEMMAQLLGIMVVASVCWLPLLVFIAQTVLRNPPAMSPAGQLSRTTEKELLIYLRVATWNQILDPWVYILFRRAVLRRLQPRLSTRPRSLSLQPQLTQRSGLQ
Protocol: as §1, with “To determine if a compound has agonist or antagonist activity at the TP receptor a functional calcium mobilisation assay may be performed. Briefly,” for “Briefly,”, “TP” for “EP1 or EP3”, “stable TXA2 mimetic U46619 (9,11-dideoxy-11α,9α-epoxy-methanoprostaglandin F2 α; commercially available from e.g Sigma-Aldrich).” for “natural agonist hormone prostaglandin E2 (PGE2).”, “U46619” for “PGE2”, “curve.” for “curve to higher concentrations of PGE2.”, “software. The agonist activity of the compounds are determined by their ability to cause an increase in intracellular mobilisation in the absence of U46619.” for “software.”
as §2, with “TP” for “EP1 or EP3”, “assay” for “assay (hereafter referred to as ‘the calcium assay’)”, “TP” for “either EP1 or EP3”, “μg/ml” for “µg/ml”
as §3, with “96-well” for “384-well”, “U46619” for “PGE2”
The data so generated may be analysed by means of a computerised curve-fitting routine. The concentration of compound that elicits a half-maximal inhibition of the calcium mobilisation induced by U46619 (plC50) may then be estimated, and the percentage activation caused by the compounds directly can be used to determine if there is any agonism present.

[4] = target: T3, EP3 receptors (Homo sapiens, UniProt P43115); experiment: human EP3 calcium mobilisation assay (CHO-K1 cells, PGE2, FLIPR); format: cell-based; settings: free bases or sodium salts; averages of a number of experiments; read-out: functional pKi value, human EP3 calcium mobilisation assay (converted)
T3 construct: expressed in transfected cells; host or cells: CHO-K1
T3 sequence (P43115 1-390): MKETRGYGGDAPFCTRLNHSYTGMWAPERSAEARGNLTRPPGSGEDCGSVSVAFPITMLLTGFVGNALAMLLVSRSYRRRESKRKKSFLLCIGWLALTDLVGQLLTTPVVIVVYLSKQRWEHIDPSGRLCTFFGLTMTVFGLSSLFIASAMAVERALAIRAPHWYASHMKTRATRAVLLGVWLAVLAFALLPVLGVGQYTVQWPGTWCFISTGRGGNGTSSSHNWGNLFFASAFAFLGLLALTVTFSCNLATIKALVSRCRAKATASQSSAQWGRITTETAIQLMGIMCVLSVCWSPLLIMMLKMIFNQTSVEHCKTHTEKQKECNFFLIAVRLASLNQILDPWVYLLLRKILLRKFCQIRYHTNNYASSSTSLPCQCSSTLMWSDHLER
Protocol: as §1, §2, §3, §4

Row | IC50 [1] [nM] | Ki [2] [nM] | Ki [3] [nM] | Ki [4] [µM] | Structure (SMILES)
1 | > 1000 | > 1000 | – | – | CC(C)(C)Oc1ccc(Cl)cc1Cc1cccc(C(=O)O)n1 [Example 41, 6-({5-Chloro-2-[(1,1-dimethylethyl)oxy]phenyl}methyl)-2-pyridinecarboxylic acid]
2 | – | < 1000 | < 1000 | > 10 | O=C(O)c1cccc(Cc2cc(Cl)ccc2OCc2ccccc2F)n1 [Example 8, Sodium 6-[(5-chloro-2-{[(2-fluorophenyl)methyl]oxy}phenyl)methyl]-2-pyridinecarboxylate]
3 | > 1000 | – | – | – | O=C(O)c1cncc(Cc2cc(Cl)ccc2OCc2c(F)cccc2F)c1 [Example 27, Sodium 5-[(5-chloro-2-{[(2,6-difluorophenyl)methyl]oxy}phenyl)methyl]-3-pyridinecarboxylate]
